Experimental findings from patent US20260258035A1, “FIVE-MEMBERED AND SIX-MEMBERED NITROGEN-CONTAINING COMPOUND, AND INTERMEDIATE, PREPARATION METHOD AND USE THEREOF” (HANGZHOU SYNRX THERAPEUTICS BIOMEDICAL TECHNOLOGY CO., LTD., priority 2022, published 2026) are described below.

Like-named read-outs stand apart in the source and are kept apart here.

Assay [1] concerns the target PARG (Homo sapiens, UniProt Q86W56). Description: Biochemical assay (PARG, TFMU-ADPr substrate).
For assay [2], the system named is HCC1806. Put plainly: Cell viability assay (CellTiter-Glo). Format: cell-based, Human. The conditions noted are these: HCC1806, 7 days, CellTiter-Glo, read-out: IC50 (nM) in cell viability assay. In general terms: In ATP-based viability assays light output follows the ATP content of the culture.
Setting [3] is: 4 nM PARG, 66.2 uM TFMU-ADPr, 3 min at room temperature.

PARG, sequence (Q86W56 whole entry): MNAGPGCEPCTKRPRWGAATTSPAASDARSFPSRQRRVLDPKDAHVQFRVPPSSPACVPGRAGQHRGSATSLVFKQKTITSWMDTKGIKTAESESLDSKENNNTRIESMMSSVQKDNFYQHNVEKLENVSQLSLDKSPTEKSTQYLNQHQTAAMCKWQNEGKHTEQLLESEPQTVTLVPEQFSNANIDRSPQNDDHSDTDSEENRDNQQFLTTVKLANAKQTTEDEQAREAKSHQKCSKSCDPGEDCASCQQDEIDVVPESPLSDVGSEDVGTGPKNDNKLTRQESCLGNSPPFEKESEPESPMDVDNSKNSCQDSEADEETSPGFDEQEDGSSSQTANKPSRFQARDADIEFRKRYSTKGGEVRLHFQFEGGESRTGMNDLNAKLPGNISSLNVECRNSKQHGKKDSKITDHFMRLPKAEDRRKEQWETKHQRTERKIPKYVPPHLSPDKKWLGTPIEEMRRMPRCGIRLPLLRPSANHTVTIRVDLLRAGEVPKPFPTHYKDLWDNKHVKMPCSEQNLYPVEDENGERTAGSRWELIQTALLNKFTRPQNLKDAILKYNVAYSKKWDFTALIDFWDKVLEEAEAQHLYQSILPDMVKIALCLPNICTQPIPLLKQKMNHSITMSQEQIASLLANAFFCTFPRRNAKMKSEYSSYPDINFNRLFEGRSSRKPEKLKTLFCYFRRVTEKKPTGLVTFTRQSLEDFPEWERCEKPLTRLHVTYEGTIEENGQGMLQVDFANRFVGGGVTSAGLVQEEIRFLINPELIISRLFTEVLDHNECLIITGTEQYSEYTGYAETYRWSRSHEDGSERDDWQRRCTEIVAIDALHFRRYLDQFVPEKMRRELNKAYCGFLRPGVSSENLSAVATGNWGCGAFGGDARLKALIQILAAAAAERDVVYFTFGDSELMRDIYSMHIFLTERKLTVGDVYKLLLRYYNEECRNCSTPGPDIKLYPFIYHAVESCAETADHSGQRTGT

What is called IC50 is the concentration at which inhibition is half-maximal. For the compound `CC(C)C(=O)N1CCN(c2cc(S(=O)(=O)NC3(C)CNC3)cn3c(-c4nnc(C(F)F)s4)ncc23)CC1` [Example 50, 3-(5-(difluoromethyl)-1,3,4-thiadiazol-2-yl)-8-(4-isobutyrylpiperazin-1-yl)-N-(3-methylazetidin-3-yl)imidazo[1,5-a]pyridine-6-sulfonamide], the IC50 is more than 1000 nM in assay [1] (setting [3]) and more than 30000 nM in assay [2] (Homo sapiens, HCC1806, 168 h).

As for `CN1CC(C)(C(=O)N2CCN(c3cc(S(=O)(=O)NC4(C)CC4)cn4c(-c5nnc(C(F)(F)F)s5)ncc34)CC2)C1` [Example 314, 8-(4-(1,3-dimethylazetidine-3-carbonyl)piperazin-1-yl)-N-(1-methylcyclopropyl)-3-(5-(trifluoromethyl)-1,3,4-thiadiazol-2-yl)imidazo[1,5-a]pyridine-6-sulfonamide], the IC50 in assay [1] (PARG, TFMU-ADPr substrate) amounted to 0.68 nM; in assay [2] (Homo sapiens, HCC1806, 168 h) it was 241 nM.

Consider `N#CC1(NS(=O)(=O)c2cc(N3CCN(C(=O)[C@@H]4CCN4)CC3)c3cnc(-c4nnc(C(F)(F)F)s4)n3c2)CC1` [Example 269, (S)-8-(4-(azetidine-2-carbonyl)piperazin-1-yl)-N-(1-cyanocyclopropyl)-3-(5-(trifluoromethyl)-1,3,4-thiadiazol-2-yl)imidazo[1,5-a]pyridine-6-sulfonamide], for which the IC50 in assay [1] (PARG, TFMU-ADPr substrate) worked out at 79.4 nM; in assay [2] (Homo sapiens, HCC1806, 168 h), 20000 nM.

`C[C@H]1CN(c2cc(S(=O)(=O)NC3(C)COC3)cn3c(-c4nnc(C(F)F)s4)ncc23)CCN1` [Example 181, (S)-3-(5-(difluoromethyl)-1,3,4-thiadiazol-2-yl)-N-(3-methyloxetan-3-yl)-8-(3-methylpiperazin-1-yl)imidazo[1,5-a]pyridine-6-sulfonamide]: the IC50 in assay [1] (PARG, TFMU-ADPr substrate) was found to be 1.78 nM; in assay [2] (Homo sapiens, HCC1806, 168 h), 151 nM.

Regarding `C[C@H]1CN(c2cc(S(=O)(=O)NC3(C)COC3)cn3c(-c4nnc(C(F)F)s4)ncc23)C[C@H](CO)O1` [Example 396, 3-(5-(difluoromethyl)-1,3,4-thiadiazol-2-yl)-8-((2R,6S)-2-(hydroxymethyl)-6-methylmorpholino)-N-(3-methyloxetan-3-yl)imidazo[1,5-a]pyridine-6-sulfonamide], the IC50 came out at 2.08 nM in assay [1] (PARG, TFMU-ADPr substrate) and 36.8 nM in assay [2] (Homo sapiens, HCC1806, 168 h).

As for `[2H]c1nc(-c2nnc(C(F)(F)F)s2)n2cc(S(=O)(=O)NC3(C#N)CC3)cc(N3CCN(C(=O)C4CC4)CC3)c12` [Example 157, N-(1-cyanocyclopropyl)-8-(4-(cyclopropanecarbonyl)piperazin-1-yl)-3-(5-(trifluoromethyl)-1,3,4-thiadiazol-2-yl)imidazo[1,5-a]pyridine-6-sulfonamide-1-d], the IC50 in assay [1] (PARG, TFMU-ADPr substrate) turned out to be 33.1 nM; in assay [2] (Homo sapiens, HCC1806, 168 h), 1020 nM.

Regarding `N#CC1(NS(=O)(=O)c2cc(N3CCN(C(=O)[C@H]4CCNC4)CC3)c3cnc(-c4nnc(C(F)(F)F)s4)n3c2)CC1` [Example 272, (S)-N-(1-cyanocyclopropyl)-8-(4-(pyrrolidine-3-carbonyl)piperazin-1-yl)-3-(5-(trifluoromethyl)-1,3,4-thiadiazol-2-yl)imidazo[1,5-a]pyridine-6-sulfonamide], the IC50 in assay [1] (PARG, TFMU-ADPr substrate) came to 7.24 nM; in assay [2] (Homo sapiens, HCC1806, 168 h), 5410 nM.

On to `CC(C)C(=O)N1CCN(c2cc(S(=O)(=O)NC3(C)CC(F)(F)C3)cn3c(-c4nnc(C(F)F)s4)ncc23)CC1` [Example 61, N-(3,3-difluoro-1-methylcyclobutyl)-3-(5-(difluoromethyl)-1,3,4-thiadiazol-2-yl)-8-(4-isobutyrylpiperazin-1-yl)imidazo[1,5-a]pyridine-6-sulfonamide], for which the IC50 in assay [1] (setting [3]) is 100 to 500 nM; in assay [1] (PARG, TFMU-ADPr substrate), 121 nM; in assay [2] (Homo sapiens, HCC1806, 168 h) it was more than 30000 nM.

As for `N#CC1(NS(=O)(=O)c2cc(N3CCN(C(=O)CO)CC3)c3cnc(-c4nnc(C(F)(F)F)s4)n3c2)CC1` [Example 276, N-(1-cyanocyclopropyl)-8-(4-(2-hydroxyacetyl)piperazin-1-yl)-3-(5-(trifluoromethyl)-1,3,4-thiadiazol-2-yl)imidazo[1,5-a]pyridine-6-sulfonamide], the IC50 in assay [1] (PARG, TFMU-ADPr substrate) is 45.7 nM; in assay [2] (Homo sapiens, HCC1806, 168 h) it was 1750 nM.

Consider `C[C@@H]1CN(c2cc(S(=O)(=O)NC3CC3)cn3c(-c4nnc(C(F)(F)F)s4)nnc23)CCN1C(=O)C1(C)CC1` [Example 386, (R)—N-cyclopropyl-8-(3-methyl-4-(1-methylcyclopropane-1-carbonyl)piperazin-1-yl)-3-(5-(trifluoromethyl)-1,3,4-thiadiazol-2-yl)-[1,2,4]triazolo[4,3-a]pyridine-6-sulfonamide], for which the IC50 in assay [1] (PARG, TFMU-ADPr substrate) turned out to be 263 nM; in assay [2] (Homo sapiens, HCC1806, 168 h), 7880 nM.

On to `COC1(C(=O)N2CCN(c3cc(S(=O)(=O)NC4(C)CC4)cn4c(-c5nnc(C(F)F)s5)ncc34)C[C@H]2C)CC1` [Example 197, (R)-3-(5-(difluoromethyl)-1,3,4-thiadiazol-2-yl)-8-(4-(1-methoxycyclopropane-1-carbonyl)-3-methylpiperazin-1-yl)-N-(1-methylcyclopropyl)imidazo[1,5-a]pyridine-6-sulfonamide], for which the IC50 came out at 0.19 nM in assay [1] (PARG, TFMU-ADPr substrate) and 6.58 nM in assay [2] (Homo sapiens, HCC1806, 168 h).

`CC(C)C(=O)N1CCN(c2cc(S(=O)(=O)NC3CC3)cn3c(-c4nnc(C(F)(F)F)s4)cnc23)CC1` [Example 208, N-cyclopropyl-8-(4-isobutyrylpiperazin-1-yl)-3-(5-(trifluoromethyl)-1,3,4-thiadiazol-2-yl)imidazo[1,2-a]pyridine-6-sulfonamide]: the IC50 in assay [1] (PARG, TFMU-ADPr substrate) stood at 110 nM; in assay [2] (Homo sapiens, HCC1806, 168 h), 3350 nM.

`C[C@@H]1CN(c2cc(S(=O)(=O)NC3(C)CC3)cn3c(-c4nnc(C(F)(F)F)s4)ncc23)CCN1C(=O)[C@H]1CCN1C` [Example 306, 8-((R)-3-methyl-4-((R)-1-methylazetidine-2-carbonyl)piperazin-1-yl)-N-(1-methylcyclopropyl)-3-(5-(trifluoromethyl)-1,3,4-thiadiazol-2-yl)imidazo[1,5-a]pyridine-6-sulfonamide]: the half-maximal inhibitory concentration (IC50) in assay [1] (PARG, TFMU-ADPr substrate) turned out to be 6.11 nM; in assay [2] (Homo sapiens, HCC1806, 168 h), 89 nM.

As for `Cc1nc(-c2nnc(C(F)(F)F)s2)n2cc(S(=O)(=O)NC3(C)CC3)cc(N3CCN(C(=O)[C@H]4CCN4C)CC3)c12` [Example 171, (R)-1-methyl-8-(4-(1-methylazetidine-2-carbonyl)piperazin-1-yl)-N-(1-methylcyclopropyl)-3-(5-(trifluoromethyl)-1,3,4-thiadiazol-2-yl)imidazo[1,5-a]pyridine-6-sulfonamide], the IC50 in assay [1] (PARG, TFMU-ADPr substrate) came out at 0.71 nM; in assay [2] (Homo sapiens, HCC1806, 168 h), 32 nM.

As to `CC1(NS(=O)(=O)c2cc(N3CCNCC3)c3cnc(-c4nnc(C(F)F)s4)n3c2)CC1` [Example 341, 3-(5-(difluoromethyl)-1,3,4-thiadiazol-2-yl)-N-(1-methylcyclopropyl)-8-(piperazin-1-yl)imidazo[1,5-a]pyridine-6-sulfonamide], the IC50 in assay [1] (PARG, TFMU-ADPr substrate) was determined as 2.42 nM; in assay [2] (Homo sapiens, HCC1806, 168 h), 139 nM.

Regarding `CC(C)C(=O)N1CCN(c2cc(S(=O)(=O)NC3CC3)cn3c(-c4nnc(C(F)(F)F)s4)nnc23)CC1` [Example 387, N-cyclopropyl-8-(4-isobutyrylpiperazin-1-yl)-3-(5-(trifluoromethyl)-1,3,4-thiadiazol-2-yl)-[1,2,4]triazolo[4,3-a]pyridine-6-sulfonamide], the IC50 in assay [1] (PARG, TFMU-ADPr substrate) stood at 38 nM; in assay [2] (Homo sapiens, HCC1806, 168 h), 800 nM.

As for `CC(C)C(=O)N1CCN(c2nc(S(=O)(=O)NC3(C)CC3)cn3c(-c4nnc(C(F)F)s4)ncc23)CC1` [Example 162, 3-(5-(difluoromethyl)-1,3,4-thiadiazol-2-yl)-8-(4-isobutyrylpiperazin-1-yl)-N-(1-methylcyclopropyl)imidazo[1,5-a]pyrazine-6-sulfonamide], the 50% inhibitory concentration (IC50) was 500 to 1000 nM in assay [1] (setting [3]); 525 nM in assay [1] (PARG, TFMU-ADPr substrate); 6070 nM in assay [2]; 5000 to 30000 nM in assay [2] (Homo sapiens, HCC1806, 168 h).

In the case of `N#CC1(NS(=O)(=O)c2cc(N3CCN(C(=O)CCC(=O)O)CC3)c3cnc(-c4nnc(C(F)(F)F)s4)n3c2)CC1` [Example 253, 4-(4-(6-(N-(1-cyanocyclopropyl)sulfamoyl)-3-(5-(trifluoromethyl)-1,3,4-thiadiazol-2-yl)imidazo[1,5-a]pyridin-8-yl)piperazin-1-yl)-4-oxobutanoic acid], the IC50 turned out to be 57.5 nM in assay [1] (PARG, TFMU-ADPr substrate) and 1000 nM in assay [2] (Homo sapiens, HCC1806, 168 h).

As for `CC(C)C(=O)N1CCN(c2cc(S(=O)(=O)NC3CC3)cn3c(-c4nnc(C(F)(F)F)s4)nc(C#N)c23)CC1` [Example 166, 1-cyano-N-cyclopropyl-8-(4-isobutyrylpiperazin-1-yl)-3-(5-(trifluoromethyl)-1,3,4-thiadiazol-2-yl)imidazo[1,5-a]pyridine-6-sulfonamide], the IC50 in assay [1] (PARG, TFMU-ADPr substrate) turned out to be 13.2 nM; in assay [2] (Homo sapiens, HCC1806, 168 h) it was 882 nM.

As to `COC1(C(=O)N2CCN(c3cc(S(=O)(=O)NC4(C)CC4)cn4c(-c5nnc(C(F)(F)F)s5)nc(C#N)c34)CC2)CC1` [Example 199, 1-cyano-8-(4-(1-methoxycyclopropane-1-carbonyl)piperazin-1-yl)-N-(1-methylcyclopropyl)-3-(5-(trifluoromethyl)-1,3,4-thiadiazol-2-yl)imidazo[1,5-a]pyridine-6-sulfonamide], the IC50 in assay [1] (PARG, TFMU-ADPr substrate) came to 0.34 nM; in assay [2] (Homo sapiens, HCC1806, 168 h), 11.5 nM.

`CC(O)(C#Cc1ccccc1)C(=O)N1CCN(c2cc(S(=O)(=O)NC3(C#N)CC3)cn3c(-c4nnc(C(F)(F)F)s4)ncc23)CC1` (centres unmarked) [Example 257, N-(1-cyanocyclopropyl)-8-(4-(2-hydroxy-2-methyl-4-phenylbut-3-ynoyl)piperazin-1-yl)-3-(5-(trifluoromethyl)-1,3,4-thiadiazol-2-yl)imidazo[1,5-a]pyridine-6-sulfonamide]: the IC50 came out at 191 nM in assay [1] (PARG, TFMU-ADPr substrate) and 2110 nM in assay [2] (Homo sapiens, HCC1806, 168 h).

On to `CN(C)C(=O)C1CCN(c2cc(S(=O)(=O)NC3(C#N)CC3)cn3c(-c4nnc(C(F)(F)F)s4)ncc23)CC1` [Example 214, 1-(6-(N-(1-cyanocyclopropyl)sulfamoyl)-3-(5-(trifluoromethyl)-1,3,4-thiadiazol-2-yl)imidazo[1,5-a]pyridin-8-yl)-N,N-dimethylpiperidine-4-carboxamide], for which the half-inhibitory concentration (IC50) in assay [1] (PARG, TFMU-ADPr substrate) was found to be 174 nM; in assay [2] (Homo sapiens, HCC1806, 168 h), 4000 nM.
